Experimental data reported in US10239843B2 (CANCER RESEARCH TECHNOLOGY LIMITED, priority 2014, dated 2019).

Target: Human Full Length PARG (Homo sapiens (Human), UniProt Q86W56)
Test: PARG enzyme assay (TR-FRET)
Type: biochemical
Conditions: read-out: PARG Biochem IC50 Geomean

Chain of Human Full Length PARG (Q86W56 whole entry): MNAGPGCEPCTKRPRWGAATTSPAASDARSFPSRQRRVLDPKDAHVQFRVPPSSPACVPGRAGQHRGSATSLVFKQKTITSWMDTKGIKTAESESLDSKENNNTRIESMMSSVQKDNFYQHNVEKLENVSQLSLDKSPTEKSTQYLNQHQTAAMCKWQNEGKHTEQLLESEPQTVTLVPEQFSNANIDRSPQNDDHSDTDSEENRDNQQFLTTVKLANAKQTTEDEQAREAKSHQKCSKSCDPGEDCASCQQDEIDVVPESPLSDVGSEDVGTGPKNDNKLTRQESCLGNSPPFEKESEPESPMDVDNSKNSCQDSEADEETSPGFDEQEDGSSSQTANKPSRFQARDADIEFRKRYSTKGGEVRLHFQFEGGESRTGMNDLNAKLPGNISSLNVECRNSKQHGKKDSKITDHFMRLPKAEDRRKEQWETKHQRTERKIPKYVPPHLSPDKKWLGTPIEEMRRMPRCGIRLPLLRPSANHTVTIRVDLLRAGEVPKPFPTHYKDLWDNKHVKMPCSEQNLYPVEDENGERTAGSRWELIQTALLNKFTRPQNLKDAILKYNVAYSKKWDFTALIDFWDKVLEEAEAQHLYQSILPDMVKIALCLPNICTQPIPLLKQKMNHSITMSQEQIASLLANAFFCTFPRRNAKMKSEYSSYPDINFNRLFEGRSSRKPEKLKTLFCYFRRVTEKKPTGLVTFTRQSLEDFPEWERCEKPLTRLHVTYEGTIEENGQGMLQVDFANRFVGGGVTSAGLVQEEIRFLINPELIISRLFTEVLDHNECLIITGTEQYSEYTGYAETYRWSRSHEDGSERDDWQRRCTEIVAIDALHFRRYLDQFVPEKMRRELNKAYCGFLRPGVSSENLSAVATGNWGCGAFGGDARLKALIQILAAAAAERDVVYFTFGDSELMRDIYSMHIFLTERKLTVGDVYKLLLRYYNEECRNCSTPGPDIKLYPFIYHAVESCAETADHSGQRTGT

Compound: Cn1c(=O)c2cc(S(=O)(=O)NC3(C)CC3)ccc2n(Cc2c(F)cccc2F)c1=O [Eample 75]
- IC50: 714 nM

Compound: CC1(NS(=O)(=O)c2ccc3[nH]c(=O)[nH]c(=O)c3c2)CC1 [Example 1]
- IC50: 9170 nM

Compound: Cn1c(=O)c2cc(S(=O)(=O)NC3(C)CC3)ccc2n(C)c1=O [Example 2]
- IC50: 4740 nM

Compound: Cn1c(=O)c2cc(S(=O)(=O)NC3(C#N)CC3)ccc2n(C)c1=O [Example 3]
- IC50: 4960 nM

Compound: CCn1c(=O)c2cc(S(=O)(=O)NC3(C)CC3)ccc2n(CC)c1=O [Example 4]
- IC50: 1470 nM

Compound: CCn1c(=O)c2cc(S(=O)(=O)NC3(C#N)CC3)ccc2n(CC)c1=O [Example 5]
- IC50: 1820 nM

Compound: CCn1c(=O)n(C)c(=O)c2cc(S(=O)(=O)NC3(C)CC3)ccc21 [Example 9]
- IC50: 4110 nM

Compound: CCn1c(=O)c2cc(S(=O)(=O)NC3(C)CC3)ccc2n(CC2CCCCC2)c1=O [Example 13]
- IC50: 3100 nM

Compound: CCn1c(=O)c2cc(S(=O)(=O)NC3(C)CC3)ccc2n(CCOC)c1=O [Example 17]
- IC50: 1570 nM

Compound: Cn1c(=O)n(CC2CC2)c(=O)c2cc(S(=O)(=O)NC3(C)CC3)ccc21 [Example 20]
- IC50: 4650 nM

Compound: Cn1c(=O)c(=O)[nH]c2ccc(S(=O)(=O)NC3(C)CC3)cc21 [Example 21, 4-Methyl-N-(1-methylcyclopropyl)-2,3-dioxo-1H-quinoxaline-6-sulfonamide]
- IC50: 6930 nM

Compound: Cn1c(=O)n(Cc2cccnc2)c(=O)c2cc(S(=O)(=O)NC3(C)CC3)ccc21 [Example 30]
- IC50: 2550 nM

Compound: Cn1c(=O)n(CC#N)c(=O)c2cc(S(=O)(=O)NC3(C)CC3)ccc21 [Example 31]
- IC50: 1140 nM

Compound: Cn1c(=O)c2cc(S(=O)(=O)NC3(C)CC3)ccc2n(CC2CCOC2)c1=O (centres unmarked) [Example 37]
- IC50: 1480 nM

Compound: Cn1c(=O)c2cc(S(=O)(=O)NC3(C)CC3)ccc2n(CC2CCCCO2)c1=O (centres unmarked) [Example 38]
- IC50: 1550 nM

Compound: Cn1c(=O)c(=O)n(Cc2ccccc2)c2ccc(S(=O)(=O)NC3(C)CC3)cc21 [Example 40, 1-Benzyl-4-methyl-N-(1-methylcyclopropyl)-2,3-dioxo-quinoxaline-6-sulfonamide]
- IC50: 2790 nM

Compound: Cn1c(=O)c2cc(S(=O)(=O)NC3(C)CC3)ccc2n(CC2(C)COC2)c1=O [Example 42]
- IC50: 2450 nM

Compound: Cn1c(=O)c2cc(S(=O)(=O)NC3(C)CC3)ccc2n(CCC2CC2)c1=O [Example 43]
- IC50: 1170 nM

Compound: C#CCn1c(=O)c2cc(S(=O)(=O)NC3(C)CC3)ccc2n(C)c1=O [Example 47]
- IC50: 2970 nM

Compound: Cn1ccnc1Cn1c(=O)n(C)c(=O)c2cc(S(=O)(=O)NC3(C)CC3)ccc21 [Example 48]
- IC50: 750 nM

Compound: Cn1c(=O)c2cc(S(=O)(=O)NC3(C)CC3)ccc2n(CC2CCCO2)c1=O (centres unmarked) [Example 49]
- IC50: 2420 nM

Compound: Cn1c(=O)n(CC2CC2(F)F)c(=O)c2cc(S(=O)(=O)NC3(C)CC3)ccc21 (centres unmarked) [Example 50]
- IC50: 3410 nM

Compound: Cc1nc2ccc(S(=O)(=O)NC3(C)CC3)cc2c(=O)n1C [Example 51]
- IC50: 4160 nM

Compound: Cc1nc2ccc(S(=O)(=O)NC3(C)CC3)cc2c(=O)[nH]1 [Example 52]
- IC50: 6960 nM

Compound: Cn1c(=O)n(Cc2ccncc2)c(=O)c2cc(S(=O)(=O)NC3(C)CC3)ccc21 [Example 53]
- IC50: 7980 nM

Compound: CC1(NS(=O)(=O)c2ccc3nc(C4CC4)[nH]c(=O)c3c2)CC1 [Example 54]
- IC50: 2420 nM

Compound: Cc1ccccc1Cn1c(=O)n(C)c(=O)c2cc(S(=O)(=O)NC3(C)CC3)ccc21 [Example 56]
- IC50: 3340 nM

Compound: Cc1cccc(Cn2c(=O)n(C)c(=O)c3cc(S(=O)(=O)NC4(C)CC4)ccc32)c1 [Example 57]
- IC50: 1110 nM

Compound: Cc1ccc(Cn2c(=O)n(C)c(=O)c3cc(S(=O)(=O)NC4(C)CC4)ccc32)cc1 [Example 58]
- IC50: 1570 nM

Compound: COc1ccccc1Cn1c(=O)n(C)c(=O)c2cc(S(=O)(=O)NC3(C)CC3)ccc21 [Example 59]
- IC50: 3240 nM

Compound: Cn1c(=O)c2cc(S(=O)(=O)NC3(C)CC3)ccc2n(Cc2ccccc2Cl)c1=O [Example 62]
- IC50: 1270 nM

Compound: Cn1c(=O)c2cc(S(=O)(=O)NC3(C)CC3)ccc2n(Cc2ccccc2F)c1=O [Example 65]
- IC50: 1450 nM

Compound: Cn1c(=O)c2cc(S(=O)(=O)NC3(C)CC3)ccc2n(Cc2cccc(C#N)c2)c1=O [Example 69]
- IC50: 1140 nM

Compound: Cn1c(=O)c2cc(S(=O)(=O)NC3(C)CC3)ccc2n(Cc2ccccc2C(F)(F)F)c1=O [Example 71]
- IC50: 2390 nM

Compound: Cn1c(=O)c2cc(S(=O)(=O)NC3(C)CC3)ccc2n(Cc2c(Cl)cccc2Cl)c1=O [Example 74]
- IC50: 2100 nM

Compound: Cc1cc(C)cc(Cn2c(=O)n(C)c(=O)c3cc(S(=O)(=O)NC4(C)CC4)ccc32)c1 [Example 77]
- IC50: 1680 nM

Compound: COc1cc(Cn2c(=O)n(C)c(=O)c3cc(S(=O)(=O)NC4(C)CC4)ccc32)cc(OC)c1 [Example 78]
- IC50: 621 nM

Compound: CC(C)Cc1nc2ccc(S(=O)(=O)NC3(C)CC3)cc2c(=O)n1C [Example 81]
- IC50: 1840 nM

Compound: Cn1c(=O)c2cc(S(=O)(=O)NC3(C)CC3)ccc2n(Cc2ccccn2)c1=O [Example 82]
- IC50: 5770 nM

Compound: Cn1c(=O)c2cc(S(=O)(=O)NC3(C)CC3)ccc2n(Cc2cccnc2)c1=O [Example 83]
- IC50: 1330 nM

Compound: Cn1c(=O)c2cc(S(=O)(=O)NC3(C)CC3)ccc2n(Cc2ccncc2)c1=O [Example 84]
- IC50: 2370 nM

Compound: Cn1c(=O)n(CC(=O)Nc2ccccc2)c(=O)c2cc(S(=O)(=O)NC3(C)CC3)ccc21 [Example 85]
- IC50: 2250 nM

Compound: Cn1c(=O)n(CC(=O)N2CCC[C@H]2C(N)=O)c(=O)c2cc(S(=O)(=O)NC3(C)CC3)ccc21 [Example 86]
- IC50: 5470 nM

Compound: Cn1c(=O)n(Cc2ccc(C(N)=O)cc2)c(=O)c2cc(S(=O)(=O)NC3(C)CC3)ccc21 [Example 89]
- IC50: 5890 nM

Compound: Cn1c(=O)c2cc(S(=O)(=O)NC3(C)CC3)ccc2n(CC(=O)Nc2ccccc2)c1=O [Example 92]
- IC50: 4130 nM

Compound: Cn1c(=O)c2cc(S(=O)(=O)NC3(C)CC3)ccc2n(Cc2noc(C(N)=O)n2)c1=O [Example 95]
- IC50: 758 nM

Compound: Cn1c(-c2ccccc2)nc2ccc(S(=O)(=O)NC3(C)CC3)cc2c1=O [Example 97]
- IC50: 2190 nM

Compound: Cn1c(=O)c2cc(S(=O)(=O)NC3(C)CC3)ccc2n(Cc2ccc(C#N)c(F)c2)c1=O [Example 100]
- IC50: 1280 nM

Compound: Cc1cc(Cn2c(=O)c3cc(S(=O)(=O)NC4(C)CC4)ccc3n(C)c2=O)no1 [Example 103]
- IC50: 5190 nM

Compound: Cc1cc(Cn2c(=O)n(C)c(=O)c3cc(S(=O)(=O)NC4(C)CC4)ccc32)no1 [Example 105]
- IC50: 1430 nM

Compound: Cn1cc(NC(=O)Cn2c(=O)n(C)c(=O)c3cc(S(=O)(=O)NC4(C)CC4)ccc32)cn1 [Example 106]
- IC50: 3880 nM

Compound: Cn1c(=O)c2cc(S(=O)(=O)NC3(C)CC3)ccc2n(CC(=O)c2ccc(O)cc2)c1=O [Example 107]
- IC50: 8940 nM

Compound: Cn1c(=O)n(Cc2cnccn2)c(=O)c2cc(S(=O)(=O)NC3(C)CC3)ccc21 [Example 108]
- IC50: 7800 nM

Compound: CCN(CC)c1ccc(C(=O)Cn2c(=O)c3cc(S(=O)(=O)NC4(C)CC4)ccc3n(C)c2=O)cc1 [Example 110]
- IC50: 6700 nM

Compound: Cn1c(=O)n(Cc2nc3ccccc3[nH]2)c(=O)c2cc(S(=O)(=O)NC3(C)CC3)ccc21 [Example 112]
- IC50: 5710 nM

Compound: Cn1ccnc1Cn1c(=O)c2cc(S(=O)(=O)NC3(C)CC3)ccc2n(C)c1=O [Example 113]
- IC50: 7350 nM

Compound: Cn1c(=O)n(CC(=O)c2ccc(N3CCCC3)cc2)c(=O)c2cc(S(=O)(=O)NC3(C)CC3)ccc21 [Example 114]
- IC50: 1510 nM

Compound: Cn1c(=O)c2cc(S(=O)(=O)NC3(C)CC3)ccc2n(Cc2nc3ccccc3[nH]2)c1=O [Example 116]
- IC50: 1050 nM

Compound: Cn1c(=O)c2cc(S(=O)(=O)NC3(C)CC3)ccc2n(CC(=O)c2ccc(N3CCCC3)cc2)c1=O [Example 117]
- IC50: 4810 nM

Compound: Cn1c(=O)c2cc(S(=O)(=O)NC3(C)CC3)ccc2n(Cc2noc(C(C)(C)C)n2)c1=O [Example 119]
- IC50: 1420 nM

Compound: Cc1noc(C)c1Cn1c(=O)n(C)c(=O)c2cc(S(=O)(=O)NC3(C)CC3)ccc21 [Example 121]
- IC50: 2540 nM

Compound: Cc1cc(Cn2c(=O)c3cc(S(=O)(=O)NC4(C)CC4)ccc3n(C)c2=O)n(C)n1 [Example 123]
- IC50: 2420 nM

Compound: Cn1nccc1Cn1c(=O)n(C)c(=O)c2cc(S(=O)(=O)NC3(C)CC3)ccc21 [Example 125]
- IC50: 1230 nM

Compound: CC1(NS(=O)(=O)c2ccc3c(c2)[nH]c(=O)c(=O)n3Cc2ccc(F)cc2)CC1 [Example 128, 1-[(4-Fluorophenyl)methyl]-N-(1-methylcyclopropyl)-2,3-dioxo-4H-quinoxaline-6-sulfonamide]
- IC50: 5100 nM

Compound: Cn1c(=O)c(=O)n(Cc2ccc(F)cc2)c2ccc(S(=O)(=O)NC3(C)CC3)cc21 [Example 130, 1-[(4-Fluorophenyl)methyl]-4-methyl-N-(1-methylcyclopropyl)-2,3-dioxo-quinoxaline-6-sulfonamide]
- IC50: 3360 nM

Compound: Cc1nc(-c2ccccc2)c(Cn2c(=O)n(C)c(=O)c3cc(S(=O)(=O)NC4(C)CC4)ccc32)s1 [Example 134]
- IC50: 760 nM

Compound: CC#CCn1c(=O)n(C)c(=O)c2cc(S(=O)(=O)NC3(C)CC3)ccc21 [Example 136]
- IC50: 1110 nM

Compound: Cc1nc(C)c(Cn2c(=O)c3cc(S(=O)(=O)NC4(C)CC4)ccc3n(C)c2=O)s1 [Example 142]
- IC50: 907 nM

Compound: Cn1c(=O)n(Cc2cnc(Cl)s2)c(=O)c2cc(S(=O)(=O)NC3(C)CC3)ccc21 [Example 144]
- IC50: 1600 nM

Compound: Cn1c(=O)c2cc(S(=O)(=O)NC3(C)CC3)ccc2n(Cc2nccs2)c1=O [Example 146]
- IC50: 671 nM

Compound: Cn1c(=O)n(Cc2cncs2)c(=O)c2cc(S(=O)(=O)NC3(C)CC3)ccc21 [Example 147]
- IC50: 1210 nM

Compound: Cn1c(=O)c2cc(S(=O)(=O)NC3(C)CC3)ccc2n(Cc2cscn2)c1=O [Example 148]
- IC50: 855 nM

Compound: Cc1csc(Cn2c(=O)c3cc(S(=O)(=O)NC4(C)CC4)ccc3n(C)c2=O)n1 [Example 150]
- IC50: 4780 nM

Compound: Cn1cncc1Cn1c(=O)c2cc(S(=O)(=O)NC3(C)CC3)ccc2n(C)c1=O [Example 154]
- IC50: 3310 nM

Compound: Cc1cc(COc2nc3ccc(S(=O)(=O)NC4(C)CC4)cc3c(=O)n2Cc2c(C)noc2C)n(C)n1 [Example 167]
- IC50: 700 nM

Compound: Cn1c(=O)c2cc(S(=O)(=O)NC3(C)CC3)ccc2n(CC#N)c1=O [Example 175]
- IC50: 4410 nM

Compound: Cc1nc(C(F)(F)F)c(Cn2c(=O)c3cc(S(=O)(=O)NC4(C)CC4)ccc3n(C)c2=O)s1 [Example 179]
- IC50: 725 nM
